According to patent US20210009542A1 (Calico Life Sciences LLC, priority 2018, published 2021):

What was measured:
[1] = system: Pan T cells isolated from C57BL6 splenocytes; test: T cell function assay (IFNγ and TNFα in supernatants, MSD V-plex); assay type: cell-based, mouse; conditions: 30 μM compound, 3 days, supernatant
Protocol: Pan T cells were isolated from C57BL6 splenocytes using a MACS Pan T cell isolation kit II (Miltenyi Biotec, Auburn, Calif.) according to the manufacturer's instructions. Isolated T cells (200,000 cells/well in a 96 well flat-bottom plate) were cultured in RPMI 1640 supplemented with 10% FBS, […] 2-mercatoethanol, 100 U/mL penicillin, and 100 μg/mL streptomycin, and incubated with the indicated concentration of compound or DMSO in duplicates. After 1 hour, mouse T cell activator CD3/CD28 Dynabeads (ThermoFisher Scientific, Waltham, Mass.) were added at a 1:5 beads to cells ratio to stimulate the T cells for 2 or 3 days as outlined below. T cells with or without compound were incubated in the absence of T cell activator beads (media only) as control.
After 3 days of stimulation, supernatants were collected and IFNγ and TNFα in supernatants were assessed using an MSD V-plex assay (Meso Scale Discovery, Rockville, Md.).

[2] = system: MC-38 murine colon adenocarcinoma; test: In vivo efficacy in MC38 tumor model; conditions: for mice that achieved complete cures / tolerability / Tumor Growth Inhibition (Max) compared to vehicle [%]: 300 mg/kg/dose oral BID for 21 days; for Tumor Growth Inhibition (Max) compared to vehicle [%]: C57Bl/6 mice, TGIMax over the entirety of the study; for tumor response observed: within 7-10 days of treatment
Protocol: All experiments were conducted in compliance with AbbVie's Institutional Animal Care and Use Committee and the National Institutes of Health Guide for Care and Use of Laboratory Animals guidelines in a facility accredited by the Association for the Assessment and Accreditation of Laboratory Animal Care. C57Bl/6 female mice were obtained from Charles River (Wilmington, Mass.). The mice were group-housed 10 per cage. Food and water were available ad libitum. Animals were acclimated to the animal facilities for a period of at least one week prior to commencement of experiments. Animals were tested in the light phase of a 12-hour light:12-hour dark schedule (lights on 0600 hours).
Cells were grown to passage 3 in vitro. A total of 1×10^5 viable MC-38 cells were inoculated subcutaneously into the right flank of female C57Bl/6 mice (7-12 weeks old) on Day 0. The injection volume was 0.1 mL and was composed of a 1:1 mixture of S-MEM and Matrigel® (Corning, N.Y., USA). […] The mean tumor volume (TV) at size match was approximately 116±8 mm^3. Following size match, treatments were initiated on the same day. […] Compound 124 was formulated in 5% DMSO, 5% Tween 80 (Polysorbate 80), 20% PEG-400 and 70% D5W (5% dextrose in water) and was dosed at 10 mL/kg. […] Tumor volume was calculated three times weekly. Measurements of the length (L) and width (W) of the tumor were taken via electronic caliper and the volume was calculated according to the following equation: V=L×W^2/2 using Study Director Version 3.1.399.22 (Studylog Systems, Inc, CA, USA). Mice were euthanized when tumor volume was […] or skin ulcerations occurred. […] Reported TGIMax is the largest TGI value for any timepoint that tumors volumes were collected for that treatment group.

[3] = system: pSTAT5 in CD3+ T cells; test: pSTAT5 flow cytometry assay in mouse whole blood; assay type: in vivo; conditions: 300 mg/kg/dose oral BID; day 8 of dosing, 2 hours post 16th dose; 100 ng/mL murine IL-2
Protocol: Whole blood was drawn into EDTA powder coated tubes by cardiac puncture from mice on day 8 of dosing with indicated PTPN2/1B inhibitor (2 hours after the 16th dose). 100 μL of whole blood were stimulated with 100 ng/mL murine IL-2 (R&D Systems, Minneapolis, Minn., cat #402-ML) for 20 minutes at 37° C., 5% CO2. After stimulation, 1.8 mL of prewarmed BD Phosflow Lyse/Fix Buffer (BD Biosciences, San Jose, Calif.) was added for 20 minutes at 37° C. Cells were washed twice in FACS buffer (Dulbecco's PBS with 0.2% BSA) and incubated for 30 minutes on ice in cold Perm Buffer III (BD Biosciences, San Jose, Calif.). Cells were washed with FACS buffer and resuspended in […] of FACS buffer with antibodies and stained for 3 hours at room temperature with gentle shaking. […] After staining, cells were washed twice with FACS buffer, and the samples were acquired on a BD LSRFortessa™ X20 flow cytometers (BD Biosciences, San Jose, Calif.) and analyzed with FLowJo V10 software (FlowJo, Ashland, Oreg.). The mean fluorescence intensity (MFI) of pSTAT5 as a measure of the amount of phosphorylated STAT5 in the CD3+ T cell population was reported as fold-change of compound treated over vehicle treated animal groups.

[4] = system: Granzyme B+ cells within CD8+ T cells; test: Granzyme B staining of CD8 T cells flow cytometry assay in mouse spleen; assay type: in vivo; conditions: 300 mg/kg/dose oral BID; day 8 of dosing, 2 hours post 16th dose
Protocol: Mice were sacrificed on day 8 of dosing with indicated PTPN2/1B inhibitor (2 hours after the 16th dose) and spleens were excised. Spleens were dissociated with a gentleMACS dissociator (Miltenyi Biotec, Bergisch Gladbach, Germany), red blood cells lysed, and single cell suspensions were prepared. Splenocytes were stained with Zombie UV™ Fixable Viability kit (Biolegend, San Diego, Calif.) diluted in Dulbecco's PBS for 10 minutes at room temperature to exclude dead cells followed by staining for surface markers for 45 minutes on ice using the following flow cytometry antibodies diluted in autoMACS Running Buffer (Miltenyi Biotec, Bergisch Gladbach, Germany): Brilliant Violet 510-labeled anti-CD45, Brilliant Ultraviolet 395-labeled anti-CD3, Brilliant Violet 786-labeled anti-CD4, APC/Cy7-labeled anti-CD8. […] After staining, cells were washed twice with autoMACS Running Buffer, and the samples were acquired on a BD LSRFortessa™ X20 flow cytometers (BD Biosciences, San Jose, Calif.) and analyzed with FLowJo V10 software (FlowJo, Ashland, Oreg.). […]

[5] = system: IP10; test: Cytokine measurement in mouse plasma (IP10); assay type: in vivo; conditions: 300 mg/kg/dose oral BID; day 8 of dosing, 2 hours post 16th dose
Protocol: Whole blood was drawn into sodium heparin by cardiac puncture from mice on day 8 of dosing with indicated PTPN2/1B inhibitor (2 hours after the 16th dose) and plasma was prepared by centrifugation. Cytokines in plasma were measured using the Th1/Th2 Cytokine & Chemokine 20-Plex Mouse ProcartaPlex™ Panel 1 (Invitrogen, Carlsbad, Calif.). IP10 levels were expressed as fold-changes over the vehicle control animal group.

[6] = anti-CD3/anti-CD28 Dynabeads (1:5 beads:cells)

Structure (SMILES) | IFNγ [1, 6] [ng/mL] | TNFα [1, 6] [ng/mL] | IFNγ ([1]; no TCR stimulation) [ng/mL] | TNFα ([1]; no TCR stimulation) [ng/mL] | mice that achieved complete cures [2] [%] | tolerability [2] | Tumor Growth Inhibition (Max) compared to vehicle [%] [2] [%] | tumor response observed [2] | pSTAT5 level in CD3+ T cells from IL2 stimulated whole blood [fold increase over vehicle] [3] [fold] | % GzB+ cells within splenic CD8+ T cells [fold change over vehicle] [4] [fold] | IP10 in plasma [fold increase over vehicle] [5] [fold]
COc1ccc2cc(O)c(N3CC(=O)NS3(=O)=O)c(F)c2c1 [Compound 124, 5-(1-fluoro-3-hydroxy-7-methoxynaphthalen-2-yl)-1λ^6,2,5-thiadiazolidine-1,1,3-trione] | 435 | 195 | 1.2 | 1.4 | 50 | well tolerated, without obvious adverse health events | 75 | apparent tumor stasis and shrinkage | 2.3 | 2.9 | 2.5
CC(C)(O)CCOc1ccc2cc(O)c(N3CC(=O)NS3(=O)=O)c(F)c2c1 [Compound 182, 5-[1-fluoro-3-hydroxy-7-(3-hydroxy-3-methylbutoxy)naphthalen-2-yl]-1λ^6,2,5-thiadiazolidine-1,1,3-trione] | 189 | 135 | – | – | 50 | well tolerated, without obvious adverse health events | 94 | apparent tumor stasis and shrinkage | – | – | –
